Holding throughout (type): biochemical
The target of one assay is T1, abl (Homo sapiens, UniProt P00519).
T1 sequence (P00519 242-493 limits assumed): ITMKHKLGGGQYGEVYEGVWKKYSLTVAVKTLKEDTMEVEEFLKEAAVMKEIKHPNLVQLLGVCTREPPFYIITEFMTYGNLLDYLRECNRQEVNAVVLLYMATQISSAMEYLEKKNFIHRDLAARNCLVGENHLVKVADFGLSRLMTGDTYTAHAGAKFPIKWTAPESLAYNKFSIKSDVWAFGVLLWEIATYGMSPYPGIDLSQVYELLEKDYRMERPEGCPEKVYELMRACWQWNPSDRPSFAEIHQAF
Briefly: abl kinase assay (ELISA or Alphascreen). The note with it: capacity to inhibit 50% of activity at 50 μM; read-out: abl inhibitory activity. In outline: (§1)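 Each kinase used about 1.5 μg affinity-purified PTK domain in 50 mM HEPES pH 7.5, 10 mM MgCl2, 150 mM NaCl and 10 μM–1 mM ATP, with 5 μM biotinylated peptide substrate. Phosphotyrosine was read by ELISA with PY20 on avidin plates or by AlphaScreen beads.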
On the technique in general: In an ELISA, binding on a coated surface is turned into a signal by an enzyme label.

The target in a further assay is hck (Homo sapiens, UniProt P08631). Briefly: hck kinase assay (ELISA or Alphascreen). The note with it: capacity to inhibit 50% of activity at 50 μM; read-out: hck inhibitory activity. Summed up:
as §1

A further assay deals with T2, Jak2 (Homo sapiens, UniProt O60674).
T2 construct: The kinase domain of humanJAK2 was amplified from U937mRNA; His tag (from pFastBac HTc vector) (N); made in house; host or cells: baculovirus; Sf9 insect cells for virus, High Five cells for large-scale production
The assay can be described thus: JAK2 kinase domain assay (ELISA or Alphascreen). The note with it: capacity to inhibit 50% of activity at 50 μM; read-out: Jak2 inhibitory activity. Summed up:
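Recombinant His-tagged human JAK2 kinase domain, expressed in High Five insect cells via baculovirus, ~1.5 μg per well in 50 mM HEPES pH 7.5, 10 mM MgCl2, 150 mM NaCl, 10 μM-1 mM ATP, 5 μM biotinylated peptide substrate. Phosphotyrosine read by anti-pTyr PY20 ELISA or Alphascreen.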

In a further assay the target is T3, Jak3 (Homo sapiens, UniProt P52333).
T3 construct: The kinase domain of humanJAK3 was amplified from U937mRNA; His tag (from pFastBac HTb vector) (N); made in house; host or cells: baculovirus; Sf9 insect cells for virus, High Five cells for large-scale production
Briefly: JAK3 kinase domain assay (ELISA or Alphascreen). The note with it: capacity to inhibit 50% of activity at 50 μM; read-out: Jak3 inhibitory activity. Summed up:
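The human JAK3 kinase domain was expressed in baculovirus-infected insect cells and nickel-affinity purified; about 1.5 μg was used per reaction. The buffer was 50 mM HEPES pH 7.5, 10 mM MgCl2, 150 mM NaCl, with 10 μM–1 mM ATP and 5 μM biotinylated peptide. Read-out was PY20 anti-phosphotyrosine ELISA or AlphaScreen.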

A further assay addresses kdr (Homo sapiens, UniProt P35968). Briefly: kdr kinase assay (ELISA or Alphascreen). The note with it: capacity to inhibit 50% of activity at 50 μM; read-out: kdr inhibitory activity. In outline: as §1

kdr, sequence (P35968 834-1162 limits assumed, species assumed): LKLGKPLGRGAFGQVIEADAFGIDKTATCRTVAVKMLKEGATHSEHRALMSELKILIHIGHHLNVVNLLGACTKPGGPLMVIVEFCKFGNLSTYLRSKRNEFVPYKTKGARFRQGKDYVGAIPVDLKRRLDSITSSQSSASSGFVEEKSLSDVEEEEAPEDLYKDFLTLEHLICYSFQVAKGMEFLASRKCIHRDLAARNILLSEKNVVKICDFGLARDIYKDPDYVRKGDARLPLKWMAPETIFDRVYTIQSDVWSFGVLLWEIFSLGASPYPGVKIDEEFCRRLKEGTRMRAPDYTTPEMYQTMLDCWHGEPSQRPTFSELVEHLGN
T2 sequence (O60674 849-1124 limits assumed): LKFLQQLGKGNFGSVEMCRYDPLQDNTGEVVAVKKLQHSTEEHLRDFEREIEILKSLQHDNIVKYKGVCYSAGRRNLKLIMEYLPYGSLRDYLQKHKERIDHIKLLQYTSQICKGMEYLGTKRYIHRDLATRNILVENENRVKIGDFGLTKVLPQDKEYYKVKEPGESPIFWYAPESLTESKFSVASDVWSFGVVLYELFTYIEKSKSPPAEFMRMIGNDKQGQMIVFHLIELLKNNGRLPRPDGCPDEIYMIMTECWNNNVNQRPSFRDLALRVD
hck, sequence (P08631 262-515 limits assumed, species assumed): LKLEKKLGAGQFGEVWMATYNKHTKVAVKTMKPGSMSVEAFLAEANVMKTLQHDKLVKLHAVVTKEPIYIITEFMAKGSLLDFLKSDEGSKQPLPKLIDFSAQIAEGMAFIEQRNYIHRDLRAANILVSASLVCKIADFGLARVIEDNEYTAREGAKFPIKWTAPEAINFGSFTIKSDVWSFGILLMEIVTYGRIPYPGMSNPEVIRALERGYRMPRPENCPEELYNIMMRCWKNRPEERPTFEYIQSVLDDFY
T3 sequence (P52333 822-1111 limits assumed): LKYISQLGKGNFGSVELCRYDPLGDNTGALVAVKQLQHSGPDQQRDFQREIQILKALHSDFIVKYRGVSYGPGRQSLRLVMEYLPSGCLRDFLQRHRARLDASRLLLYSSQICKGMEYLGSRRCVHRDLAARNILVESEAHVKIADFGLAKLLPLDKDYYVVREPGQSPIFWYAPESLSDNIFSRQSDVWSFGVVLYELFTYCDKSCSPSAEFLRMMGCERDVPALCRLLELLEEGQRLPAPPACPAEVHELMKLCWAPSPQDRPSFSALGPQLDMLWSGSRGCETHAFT

On to `C[C@H](Nc1cncc(-n2cnc3cc(NC(=O)c4ccncc4)ccc32)n1)c1ccccc1`, for which the inhibition at 50 µM on abl was above 50%; on hck it was above 50%; at Jak2 it was below 50%; on Jak3 it was below 50%; at kdr, above 50%.

Take `C[C@H](Nc1cncc(-n2cnc3cc(C(=O)NCCO)ccc32)n1)c1ccccc1`: the inhibition at 50 µM at abl, at hck, on Jak2, at Jak3 and at kdr was above 50% throughout.

`C[C@H](Nc1cncc(-n2cnc3cc(NC(=O)c4cccnc4)ccc32)n1)c1ccccc1`: the inhibition at 50 µM on abl is above 50%; on hck it was above 50%; at Jak2 it was above 50%; at Jak3, below 50%; on kdr, above 50%.

For the compound `C[C@H](Nc1cncc(-n2cnc3ccc(CO)cc32)n1)c1ccccc1`, the inhibition at 50 µM was below 50% on abl; above 50% on hck; above 50% on Jak2; above 50% at Jak3; above 50% on kdr.

Take `CNCCN(C)Cc1ccc2ncn(-c3cncc(NC(C)c4ccc(F)cc4)n3)c2c1` (stereo not drawn): the inhibition at 50 µM at abl is below 50%; on hck, above 50%; on Jak2, above 50%; on Jak3, below 50%; at kdr it was above 50%.

In the case of `C[C@H](Nc1cncc(-n2cnc3cc(NCc4cccnc4)ccc32)n1)c1ccccc1`, the inhibition at 50 µM at abl, on hck, at Jak2, at Jak3 and on kdr was above 50% throughout.

On to `C[C@@H](Nc1cncc(-n2cnc3ccccc32)n1)c1ccccc1`, for which the inhibition at 50 µM was above 50% at abl; above 50% at hck; above 50% at Jak2; below 50% on Jak3; above 50% on kdr.

Turning to `C[C@H](Nc1cncc(-n2cnc3cc(C(=O)NCCCCN4CCOCC4)ccc32)n1)c1ccccc1`, the inhibition at 50 µM at abl, on hck, on Jak2, at Jak3 and at kdr was above 50% throughout.

Take `CNC(=O)c1ccc2c(c1)ncn2-c1cncc(N[C@@H](C)c2ccccc2)n1`: the inhibition at 50 µM is above 50% at abl; above 50% on hck; above 50% at Jak2; below 50% on Jak3; above 50% at kdr.

Take `C[C@H](Nc1cncc(-n2cnc3ccncc32)n1)c1ccccc1`: the inhibition at 50 µM on abl, at hck, at Jak2, at Jak3 and on kdr was above 50% each time.

Consider `C[C@H](Nc1cncc(-n2cnc3ccccc32)n1)c1ccc(-c2cccnc2)cc1`, for which the inhibition at 50 µM on abl is below 50%; on hck, below 50%; at Jak2, above 50%; on Jak3 it was above 50%; on kdr it was above 50%.

Take `C[C@H](Nc1cncc(-n2cnc3cc(NC(=O)[C@@H]4CCCN4C(=O)OC(C)(C)C)ccc32)n1)c1ccccc1`: the inhibition at 50 µM on abl was above 50%; on hck, above 50%; on Jak2 it was above 50%; on Jak3, below 50%; at kdr it was above 50%.

For the compound `c1ccc(CNc2cncc(-n3ccnc3)n2)cc1`, the inhibition at 50 µM is above 50% on abl; above 50% at hck; below 50% on Jak2; below 50% at Jak3; below 50% at kdr.

Take `C[C@H](Nc1cncc(-n2cnc3cnccc32)n1)c1ccccc1`: the inhibition at 50 µM at abl, on hck, at Jak2, at Jak3 and at kdr was above 50% each time.

Take `CC(Nc1cncc(-n2cnc3ccccc32)n1)c1ccc(-c2ccccc2)cc1` (stereo not drawn): the inhibition at 50 µM was above 50% on abl; above 50% at hck; below 50% on Jak2; below 50% on Jak3; below 50% at kdr.

Regarding `C[C@H](Nc1cncc(-n2cnc3cc(NC(=O)C4CCCNC4)ccc32)n1)c1ccccc1` (stereo partly drawn), the inhibition at 50 µM at abl, on hck, at Jak2, at Jak3 and at kdr was above 50% each time.

With `Cc1ccc2c(c1)ncn2-c1cncc(N[C@@H](C)c2ccccc2)n1`, the inhibition at 50 µM was above 50% at abl; above 50% at hck; above 50% at Jak2; below 50% at Jak3; above 50% on kdr.

For `C[C@H](Nc1cncc(-n2cnc3cc(C(=O)NCc4ccccc4)ccc32)n1)c1ccccc1`, the inhibition at 50 µM on abl is above 50%; on hck, above 50%; on Jak2, below 50%; at Jak3, below 50%; at kdr it was above 50%.

With `CC(Nc1cncc(-n2cnc3ccccc32)n1)c1ccc(F)cc1` (stereo not drawn), the inhibition at 50 µM is above 50% on abl; above 50% at hck; above 50% at Jak2; below 50% on Jak3; above 50% at kdr.

`CC(=O)Nc1ccc2ncn(-c3cncc(N[C@@H](C)c4ccccc4)n3)c2c1`: the inhibition at 50 µM at abl is above 50%; at hck it was above 50%; at Jak2 it was above 50%; at Jak3, below 50%; on kdr, above 50%.

`C[C@H](Nc1cncc(-n2cnc3cc(-c4cccnc4)ccc32)n1)c1ccccc1`: the inhibition at 50 µM on abl, at hck, at Jak2, at Jak3 and at kdr was above 50% each time.

The record behind these values is patent US7511047B2, “Kinase inhibitors” (Cytopia Research Pty Ltd, priority 2002, dated 2009).
